Laboratory results as given in patent US6979681B2, “Half-sandwich ruthenium (II) compounds comprising nitrogen containing ligands for treatment of cancer” (University Court, The University of Edinburgh, priority 1999, dated 2005).

What follows are molecules tested on A2780 ovarian cancer cell line (assay: Cell growth inhibition of Ru compounds on A2780 ovarian cancer cell line (24-well trays, Coulter counter)). Conditions: 24 hours drug exposure, further 3 days growth, cell count.
Format: cell-based
Method: The compounds are tested on 24-well trays. Cells growing in a flask are harvested just before they become confluent, counted using a haemocytometer and diluted down with media to a concentration of 1×10^4 cells per ml. The cells are then seeded in the 24-well trays at a density of 1×10^4 cells per well (i.e. 1 ml of the diluted cell suspension is added to each well). The cells are then left to plate down and grow for 72 hours before adding the compounds of the invention.
The Ru complexes are weighed out and made up to a concentration of 1 mg/ml with deionised water then sonicated until they go into solution. The appropriate volume of the Ru solution is added to 5 ml of media to make it up to a concentration of 100 μM for each drug. This 100 μM solution is then serially diluted to make up the 10 μM, 1 μM and 0.1 μM solutions.
The media is removed from the cells and replaced with 1 ml of the media dosed with drug. Each concentration is done in duplicate. A set of control wells are left on each plate, containing media without drug.
The cells are left exposed to the drugs for 24 hours and then washed with phosphate buffered saline before fresh media is added.
They are allowed to grow on for a further 3 days before being counted using a Coulter counter.
Preparing cells for counting:
Media is removed and 1 ml of PBS is added to the cells.
250 μl of trypsin is added and cells left in incubator for a few minutes to allow the monolayers to detach.
Once trypsinised, 250 μl of media is added to each well to neutralise the trypsin. 200 μl of this suspension is added to 10 ml of NaCl for counting.
Using the above protocol, a number of compounds of the invention were tested on A2780 ovarian cancer cell line.
“[(η^6-p-cymene)RuBr(CH3CN)2]^+[PF6]^− [Example 2]” was tested, and the IC50 was 8 µM. Work on `COC(=O)c1ccccc1.F[P-](F)(F)(F)(F)F.[Cl][Ru-]1[NH2+]CC[NH2+]1` [Example 8, [η^6-C6H5CO2CH3)RuCl(H2NCH2CH2NH2—N,N)]^+[PF6]^−] yielded an IC50 of 55 µM. `CC[NH+]1CC[NH2+][Ru-]1[Cl].F[P-](F)(F)(F)(F)F.c1ccc(-c2ccccc2)cc1` [Example 10, {(η^6-C6H5C6H5)RuCl[H2N(CH2)2NH(CH2CH3)]}^+PF6^−] was tested, and the IC50 was 6 µM. For `F[P-](F)(F)(F)(F)F.[Cl][Ru-]1[NH2+]CC[NH2+]1.c1ccccc1` [Example 3, [(η^6-C6H6)RuCl(H2NCH2CH2NH2—N,N)]^+[PF6]^−], the IC50 was 8 µM. Work on “[(η^6-p-cymene)RuCl2(isonicotinamide)] [Example 7]” yielded an IC50 of 11 µM. Work on `F[P-](F)(F)(F)(F)F.[I][Ru-]1[NH2+]CC[NH2+]1.c1ccccc1` [Example 4, [(η^6-C6H6)RuI(H2NCH2CH2NH2—N,N)]^+[PF6]^−] yielded an IC50 of 20 µM. With “[(η^6-p-cymene)RuCl(CH3CN)2]^+[PF6]^− [Example 1]” the IC50 was 7 µM. In the case of `F[P-](F)(F)(F)(F)F.F[P-](F)(F)(F)(F)F.[Cl][Ru-]1[NH2+]CC[NH+]1CCCCCC[NH+]1CC[NH2+][Ru-]1[Cl].c1ccc(-c2ccccc2)cc1.c1ccc(-c2ccccc2)cc1` (centres unmarked) [Example 11, {[η^6-C6H5C6H5)RuCl]2[H2N(CH2)2NH(CH2)6NH(CH22NH2—N,N′,N″,N′″]}^2+2PF6^−], the IC50 is reported as 5 µM. With “[(η^6-p-cymene)RuI(H2NCH2CH2NH2—N, N)]^+[PF6]^− [Example 6]” the IC50 was 6 µM. With “[(η^6-p-cymene)RuCl(H2NCH2CH2NH2—N,N)]^+[PF6]^− [Example 5]” the IC50 was 8 µM. In the case of `F[P-](F)(F)(F)(F)F.[Cl][Ru-]1[NH2+]CC[NH2+]1.c1ccc(-c2ccccc2)cc1` [Example 9, [(η^6-C6H5C6H5)RuCl(H2NCH2CH2NH2—N,N)]^+[PF6]^−], the IC50 is reported as 6 µM.
